Measurements taken from ChEMBL document CHEMBL1201862, “PubChem BioAssay data set” (2004).
Activity calls are given as the source filed them.

How the values were obtained:
Coagulation factor XII = target: T1, Coagulation factor XII (Homo sapiens, UniProt P00748); type: functional;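 further: activated factor XIIa alpha cleaving a fluorogenic AMC peptide substrate; inhibitor potency from loss of enzyme activity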
T1 sequence (P00748 whole entry): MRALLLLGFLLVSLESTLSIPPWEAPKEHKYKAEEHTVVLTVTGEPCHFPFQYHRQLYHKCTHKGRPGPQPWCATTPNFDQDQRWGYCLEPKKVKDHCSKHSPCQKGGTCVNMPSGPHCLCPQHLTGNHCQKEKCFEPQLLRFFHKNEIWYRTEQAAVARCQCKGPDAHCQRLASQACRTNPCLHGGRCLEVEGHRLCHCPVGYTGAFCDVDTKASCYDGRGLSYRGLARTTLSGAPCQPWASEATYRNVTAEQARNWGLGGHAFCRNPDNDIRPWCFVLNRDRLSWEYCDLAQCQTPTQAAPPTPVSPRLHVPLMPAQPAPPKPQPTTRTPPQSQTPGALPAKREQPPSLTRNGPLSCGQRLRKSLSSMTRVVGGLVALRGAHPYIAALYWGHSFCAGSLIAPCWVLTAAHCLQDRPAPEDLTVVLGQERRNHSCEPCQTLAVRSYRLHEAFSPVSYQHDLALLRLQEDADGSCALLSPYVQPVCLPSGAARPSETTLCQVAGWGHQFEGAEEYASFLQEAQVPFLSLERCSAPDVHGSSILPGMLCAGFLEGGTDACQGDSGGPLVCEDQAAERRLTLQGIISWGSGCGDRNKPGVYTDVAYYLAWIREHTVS

[1] = target: T2, Calpain-2 catalytic subunit (Sus scrofa, UniProt P43367); assay: m-calpain protease blockers, concentration series – biochemical, fluorogenic peptide substrate, dose response (AID 1420); type: functional
T2 sequence (P43367 whole entry): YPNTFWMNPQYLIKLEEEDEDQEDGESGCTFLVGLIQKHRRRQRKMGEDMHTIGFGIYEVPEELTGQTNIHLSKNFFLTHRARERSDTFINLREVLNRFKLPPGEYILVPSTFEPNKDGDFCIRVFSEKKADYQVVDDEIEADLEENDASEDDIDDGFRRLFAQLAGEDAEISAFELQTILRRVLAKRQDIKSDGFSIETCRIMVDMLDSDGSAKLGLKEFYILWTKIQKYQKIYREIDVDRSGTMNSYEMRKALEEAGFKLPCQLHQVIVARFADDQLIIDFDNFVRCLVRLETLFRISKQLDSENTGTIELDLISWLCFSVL

[2] = target: T3, Replicative DNA helicase DnaB (Mycobacterium tuberculosis, UniProt P9WMR3); assay: DnaB intein splicing inhibitors, dose response, biochemical, cell-free fluorescence (AID 449749); type: functional
T3 sequence (P9WMR3 whole entry): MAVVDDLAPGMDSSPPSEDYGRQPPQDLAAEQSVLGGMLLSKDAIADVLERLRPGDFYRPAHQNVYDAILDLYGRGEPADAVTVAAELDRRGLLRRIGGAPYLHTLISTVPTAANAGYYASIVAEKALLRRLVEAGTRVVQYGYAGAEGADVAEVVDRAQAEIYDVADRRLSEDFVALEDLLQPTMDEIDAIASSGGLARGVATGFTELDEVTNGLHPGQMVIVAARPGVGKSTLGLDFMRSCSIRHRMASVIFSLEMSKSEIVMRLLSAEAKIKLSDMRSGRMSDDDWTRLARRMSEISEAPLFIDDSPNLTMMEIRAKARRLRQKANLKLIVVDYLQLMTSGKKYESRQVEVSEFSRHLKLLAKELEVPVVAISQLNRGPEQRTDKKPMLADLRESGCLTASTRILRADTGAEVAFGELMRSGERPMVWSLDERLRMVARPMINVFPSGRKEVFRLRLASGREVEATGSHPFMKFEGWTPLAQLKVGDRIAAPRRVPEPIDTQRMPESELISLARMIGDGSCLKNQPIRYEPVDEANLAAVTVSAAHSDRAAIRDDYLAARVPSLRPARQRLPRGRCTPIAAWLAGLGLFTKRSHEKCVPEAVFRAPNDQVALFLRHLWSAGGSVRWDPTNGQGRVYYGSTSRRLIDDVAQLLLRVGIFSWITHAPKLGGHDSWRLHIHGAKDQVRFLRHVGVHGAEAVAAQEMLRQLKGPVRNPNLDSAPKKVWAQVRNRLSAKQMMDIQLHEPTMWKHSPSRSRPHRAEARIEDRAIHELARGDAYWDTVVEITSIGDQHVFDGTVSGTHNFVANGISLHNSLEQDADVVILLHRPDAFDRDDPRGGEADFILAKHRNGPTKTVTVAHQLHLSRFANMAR

Protein RecA = target: T4, Protein RecA (Mycobacterium tuberculosis, UniProt P9WHJ3); assay: Fluorescence Cell-Free Homogeneous Dose Retest to Identify Inhibitors of RecA-Intein Splicing Activity. [Related pubchem assays (depositor defined):AID2097, AID2223, AID489010, AID492950]; type: functional
T4 sequence (P9WHJ3 whole entry): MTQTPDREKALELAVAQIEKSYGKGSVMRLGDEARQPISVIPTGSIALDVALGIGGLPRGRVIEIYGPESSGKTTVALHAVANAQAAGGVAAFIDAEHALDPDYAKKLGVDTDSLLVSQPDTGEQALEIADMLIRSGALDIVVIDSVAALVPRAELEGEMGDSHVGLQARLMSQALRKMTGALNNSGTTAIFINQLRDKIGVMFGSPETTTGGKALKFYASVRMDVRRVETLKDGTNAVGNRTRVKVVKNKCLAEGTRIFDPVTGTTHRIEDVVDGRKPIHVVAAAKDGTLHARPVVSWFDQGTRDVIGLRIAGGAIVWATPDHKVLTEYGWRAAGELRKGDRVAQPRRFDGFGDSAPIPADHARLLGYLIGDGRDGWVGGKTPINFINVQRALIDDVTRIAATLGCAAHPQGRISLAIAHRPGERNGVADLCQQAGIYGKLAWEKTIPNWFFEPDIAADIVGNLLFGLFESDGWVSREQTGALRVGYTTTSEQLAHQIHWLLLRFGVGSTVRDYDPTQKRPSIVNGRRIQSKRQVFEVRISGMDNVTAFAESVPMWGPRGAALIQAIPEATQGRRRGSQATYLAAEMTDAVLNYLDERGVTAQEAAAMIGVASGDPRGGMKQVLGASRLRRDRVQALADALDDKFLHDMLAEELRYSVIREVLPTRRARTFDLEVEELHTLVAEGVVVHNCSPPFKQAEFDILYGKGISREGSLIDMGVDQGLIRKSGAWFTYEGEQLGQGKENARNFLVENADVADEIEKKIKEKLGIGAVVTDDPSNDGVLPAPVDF

Cytochrome P450 2D6 = Cytochrome P450 2D6 (Homo sapiens, UniProt P10635);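 further: CYP2D6 member of a cytochrome P450 panel assay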
Cytochrome P450 2C9 = Cytochrome P450 2C9 (Homo sapiens, UniProt P11712)
[3] = A549 cell cytotoxicity, dose response, cytotoxicity control, plate reader, cherry-pick, antagonist series (AID 743412); type: functional, cell-based
[4] = toxicity toward HepG2 liver cells – cell-based, plate reader, cherry-pick, antagonist series, cytotoxicity control, dose response (AID 743416); type: functional
[5] = blockers of bursicon-stimulated LGR2 cAMP reporter – cell-based, HEK293, CRE-luciferase reporter, cherry pick, set 2, dose response (AID 743343); type: functional;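 further: transfected cells were stimulated with diluted bursicon conditioned medium after compound addition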
[6] = blockade of melanocortin 4 receptor signaling – cell-based, plate reader, cherry pick, counter-screen for LGR2 antagonist project, dose response (AID 743444); type: functional;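 further: transfected HEK 293 cells stimulated with alpha-MSH peptide; potency of inhibitors of the alpha-MSH evoked signal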
[7] = target: Eukaryotic translation initiation factor 4E (Mus musculus, UniProt P63073); assay: blockers of eIF4G binding by eIF4E – biochemical, TR-FRET, dose response (AID 855); type: functional;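 further: potency for disrupting eIF4E binding to eIF4GI seen as loss of FRET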
[8] = viability of uninfected HEp-2 cells – cell-based, HTS, cytotoxicity control for RSV inhibitor project, dose response (AID 2410); type: functional; settings: human respiratory syncytial virus
[9] = target: T5, Heat shock factor protein 1 (Mus musculus, UniProt P38532); assay: decrease of HSF1-responsive luciferase luminescence – cell-based, NIH3T3, dose retest, confirmation (AID 2382); type: functional;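 further: NIH3T3 fibroblasts with HSF1-driven luciferase reporter stressed by proteasome inhibitor MG132; luminescence from HSF1-driven luciferase expression after 8 hours of MG132 stress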
T5 sequence (P38532 whole entry): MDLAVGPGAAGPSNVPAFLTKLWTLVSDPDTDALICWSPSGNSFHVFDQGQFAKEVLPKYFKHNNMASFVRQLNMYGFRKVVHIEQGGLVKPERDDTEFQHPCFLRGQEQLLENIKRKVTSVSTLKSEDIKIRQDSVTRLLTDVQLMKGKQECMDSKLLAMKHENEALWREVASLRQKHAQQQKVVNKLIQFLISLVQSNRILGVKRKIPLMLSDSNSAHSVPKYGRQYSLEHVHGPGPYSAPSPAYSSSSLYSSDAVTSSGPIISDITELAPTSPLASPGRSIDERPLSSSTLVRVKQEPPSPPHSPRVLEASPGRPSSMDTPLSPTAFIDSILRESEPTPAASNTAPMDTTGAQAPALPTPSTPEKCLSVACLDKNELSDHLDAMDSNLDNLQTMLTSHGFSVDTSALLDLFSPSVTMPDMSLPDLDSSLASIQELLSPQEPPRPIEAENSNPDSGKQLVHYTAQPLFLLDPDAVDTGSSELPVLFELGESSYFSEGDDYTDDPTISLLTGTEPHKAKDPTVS

[10] = target: T6, Rac GTPase-activating protein 1 (Homo sapiens, UniProt Q9H0H5); assay: blockers of MgcRacGAP-driven Rac1 GTP hydrolysis – biochemical, ADP Hunter fluorescence, primary and confirmatory, confirmation (AID 624330); type: functional
T6 sequence (Q9H0H5 whole entry): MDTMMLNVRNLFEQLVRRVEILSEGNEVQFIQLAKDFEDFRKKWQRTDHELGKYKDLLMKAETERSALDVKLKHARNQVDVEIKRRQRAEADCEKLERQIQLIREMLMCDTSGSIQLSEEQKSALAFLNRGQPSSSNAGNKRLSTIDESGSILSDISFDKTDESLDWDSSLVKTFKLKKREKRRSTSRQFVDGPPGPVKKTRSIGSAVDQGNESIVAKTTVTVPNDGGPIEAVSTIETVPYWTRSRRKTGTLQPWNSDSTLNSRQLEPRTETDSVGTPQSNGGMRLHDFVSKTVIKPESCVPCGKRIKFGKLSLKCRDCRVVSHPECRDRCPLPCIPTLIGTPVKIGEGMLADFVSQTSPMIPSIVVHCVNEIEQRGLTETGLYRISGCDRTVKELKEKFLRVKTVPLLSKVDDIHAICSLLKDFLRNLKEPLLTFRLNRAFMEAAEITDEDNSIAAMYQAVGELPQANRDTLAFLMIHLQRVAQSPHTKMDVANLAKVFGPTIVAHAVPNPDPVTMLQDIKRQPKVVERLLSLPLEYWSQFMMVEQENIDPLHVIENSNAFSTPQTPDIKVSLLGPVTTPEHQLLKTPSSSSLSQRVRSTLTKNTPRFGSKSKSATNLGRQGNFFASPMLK

INS1 = assay: INS-1E survival protection against cytokine death – cell-based, luminescence, retest, dose response (AID 449756); type: functional; settings: Rattus norvegicus;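 further: cell death triggered by IL-1 beta plus TNF-alpha plus IFN-gamma mixture; protective hits raise ATP signal compared with cytokine alone wells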
[11] = P. falciparum Dd2 growth inhibitors, dose response, SYBR Green, cherry-picked samples (AID 1159567); type: functional, cell-based

Eukaryotic translation initiation factor 4E, sequence (P63073 whole entry): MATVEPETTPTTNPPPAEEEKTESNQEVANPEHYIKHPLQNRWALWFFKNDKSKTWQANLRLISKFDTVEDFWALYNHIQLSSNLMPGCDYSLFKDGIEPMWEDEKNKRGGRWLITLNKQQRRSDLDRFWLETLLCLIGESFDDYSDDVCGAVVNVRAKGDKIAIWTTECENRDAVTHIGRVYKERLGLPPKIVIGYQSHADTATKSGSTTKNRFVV
Cytochrome P450 2C9, sequence (P11712 whole entry): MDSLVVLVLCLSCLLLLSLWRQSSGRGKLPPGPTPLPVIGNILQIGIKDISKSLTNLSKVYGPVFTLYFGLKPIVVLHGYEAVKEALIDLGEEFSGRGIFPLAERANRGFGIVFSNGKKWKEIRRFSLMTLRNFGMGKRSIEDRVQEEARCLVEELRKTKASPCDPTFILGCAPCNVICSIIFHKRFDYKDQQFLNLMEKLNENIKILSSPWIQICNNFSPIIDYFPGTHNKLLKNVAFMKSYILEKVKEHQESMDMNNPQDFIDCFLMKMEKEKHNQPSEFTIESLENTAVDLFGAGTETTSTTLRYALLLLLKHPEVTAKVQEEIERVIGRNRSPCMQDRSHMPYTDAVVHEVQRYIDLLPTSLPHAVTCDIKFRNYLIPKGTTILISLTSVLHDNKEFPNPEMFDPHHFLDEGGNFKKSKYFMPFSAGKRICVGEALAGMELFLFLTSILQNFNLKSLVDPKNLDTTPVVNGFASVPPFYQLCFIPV
Cytochrome P450 2D6, sequence (P10635 whole entry): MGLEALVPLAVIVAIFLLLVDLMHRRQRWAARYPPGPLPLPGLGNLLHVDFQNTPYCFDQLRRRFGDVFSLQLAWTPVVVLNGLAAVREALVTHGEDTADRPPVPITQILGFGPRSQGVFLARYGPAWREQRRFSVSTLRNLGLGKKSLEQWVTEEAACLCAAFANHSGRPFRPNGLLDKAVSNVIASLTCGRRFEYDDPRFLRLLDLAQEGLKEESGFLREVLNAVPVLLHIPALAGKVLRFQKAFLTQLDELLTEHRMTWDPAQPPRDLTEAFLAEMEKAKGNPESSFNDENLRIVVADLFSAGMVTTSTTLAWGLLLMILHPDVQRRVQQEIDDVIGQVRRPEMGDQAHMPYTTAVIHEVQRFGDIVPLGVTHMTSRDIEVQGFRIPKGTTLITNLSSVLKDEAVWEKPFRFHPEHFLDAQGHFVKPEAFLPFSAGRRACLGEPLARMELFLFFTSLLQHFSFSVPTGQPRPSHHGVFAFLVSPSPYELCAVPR

Compound: C=CCSc1nc(C)c(CC=C)c(O)n1
- IC50 (Coagulation factor XII): > 50 µM (inactive)

Compound: CCOc1ccccc1Nc1nnc(Cc2ccccc2Cl)c(O)n1
- IC50 [1]: > 50 µM (not active)
- AC50 [2]: > 380 µM (inactive)
- EC50 (Protein RecA): 21 µM (active)

Compound: CCN(CC)S(=O)(=O)c1ccc2oc(C(=O)NCc3ccc(C)cc3)c(C)c2c1
- IC50 [1]: 26.3 µM (not active)

Compound: Cc1c(=O)n(OCc2ccccc2F)c2ccccc2[n+]1[O-]
- IC50 [1]: 25.6 µM (not active)

Compound: CCCCc1nc(O)c(C#N)c2c1CCCC2
- IC50 (Coagulation factor XII): > 50 µM (inactive)
- AC50 (Cytochrome P450 2D6): 35.5 µM (inconclusive)
- AC50 (Cytochrome P450 2C9): 0.251 µM (inconclusive)

Compound: Cc1ccoc1C(=O)Nc1ccc2ccccc2c1
- AC50 [3]: > 52 µM (inactive)
- AC50 [4]: 40 µM (active)
- AC50 [5]: 7.48 µM (active)
- AC50 [6]: 9.34 µM (active)

Compound: CSc1nsc(SCC(=O)N2CCc3ccccc32)n1
- IC50 [7]: > 64 µM (inactive)

Compound: CCOC(=O)Cn1c(=O)oc2cc(S(=O)(=O)NCc3cccs3)ccc21
- IC50 [7]: > 64 µM (inactive)

Compound: COC(=O)CC(NS(=O)(=O)c1cccs1)c1cccc2ccccc12 (stereo unspecified)
- IC50 [1]: > 50 µM (not active)

Compound: CCOC(=O)c1c(N)sc2c(O)c(Br)ccc12
- CC50 [8]: 47 µM (active)
- EC50 [9]: > 195 µM (not active)
- IC50 [7]: > 64 µM (inactive)
- IC50 [10]: 58.6 µM (active)

Compound: Cc1cc(C)cc(NC(=O)c2ccccc2CC[N+](=O)[O-])c1
- IC50 [7]: > 64 µM (inactive)

Compound: COc1cccc(Cn2c(NCc3ccco3)nc3c2c(=O)n(C)c(=O)n3C)c1
- IC50 (Coagulation factor XII): > 50 µM (inactive)
- AC50 (INS1): 3.85 µM (active)

Compound: Cc1ccc(-c2nn(-c3ccccc3)cc2/C=N/NS(=O)(=O)c2ccccc2)cc1
- IC50 (Coagulation factor XII): > 50 µM (inactive)

Compound: CCCNC(=O)Nc1ccc2c(c1)C(=O)N(C)C[C@H](OC)[C@H](C)CN(Cc1ccc(-c3ccccn3)cc1)[C@@H](C)CO2
- AC50 [3]: 26.4 µM (active)
- AC50 [4]: 44 µM (active)
- AC50 [5]: 50.8 µM (active)
- AC50 [6]: 55.8 µM (active)

Compound: C/C(=N\NC(=O)CCn1nnc2ccccc21)c1cccs1
- IC50 (Coagulation factor XII): > 50 µM (inactive)

Compound: COc1cccc(-c2cn(CC[C@@H]3CC[C@@H](NS(=O)(=O)c4ccccc4Cl)[C@H](CO)O3)nn2)c1
- AC50 [11]: 5.86 µM (active)

Compound: Cc1ccccc1S(=O)(=O)N1[C@H](C#N)[C@@H](c2ccc(C#CC3CC3)cc2)[C@@H]1CO
- AC50 [11]: 4.69 µM (active)
